The source of these data is US6743817B2, “Substituted fused pyrroleimines and pyrazoleimines” (Neurogen Corporation, priority 2000, dated 2004).

By melting point is commonly meant the temperature of the solid-liquid transition. For `COc1ccc(NC(=O)c2n[nH]c3c2C(=NC(C)C)CCC3)cc1F`, the melting point is 259 to 261 °C (dec.).
